# Measurements: ChEMBL document CHEMBL3621049, “Imidazole derivatives show anticancer potential by inducing apoptosis and cellular senescence” (2014)
# Calls of active or inactive are those of the source. The calls are words filed in the database; no cut-off is given here.
# Key:
# LOX IMVI = assay: Growth inhibition of human LOXIMVI cells at 10 uM by sulforhodamine B assay; format: functional, cell-based
# HCT-116 = assay: Growth inhibition of human HCT116 cells at 10 uM by sulforhodamine B assay; format: functional, cell-based
# COLO 205 = assay: Growth inhibition of human COLO205 cells at 10 uM by sulforhodamine B assay; format: functional, cell-based
# SW-620 = assay: Growth inhibition of human SW620 cells at 10 uM by sulforhodamine B assay; format: functional, cell-based
# ACHN = assay: Growth inhibition of human ACHN cells at 10 uM by sulforhodamine B assay; format: functional, cell-based
# Malme-3M = assay: Growth inhibition of human MALME-3M cells at 10 uM by sulforhodamine B assay; format: functional, cell-based
# TK-10 = assay: Growth inhibition of human TK10 cells at 10 uM by sulforhodamine B assay; format: functional, cell-based
# A549 [1] = assay: Cell cycle arrest in human A549 cells assessed as accumulation at G2/M phase at 10 uM after 48 hrs using propidium iodide staining by flow cytometer analysis (reference value: 13.02%); format: functional
# CCRF-CEM = assay: Growth inhibition of human CCRF-CEM cells at 10 uM by sulforhodamine B assay; format: functional, cell-based
# A549 [2] = assay: Cell cycle arrest in human A549 cells assessed as accumulation at sub-G1 phase at 20 uM after 48 hrs using propidium iodide staining by flow cytometer analysis (reference value: 0.96%); format: functional
# RPMI-8226 = assay: Growth inhibition of human RPMI8226 cells at 10 uM by sulforhodamine B assay; format: functional, cell-based
# SF-268 = assay: Growth inhibition of human SF268 cells at 10 uM by sulforhodamine B assay; format: functional, cell-based
# HT-29 = assay: Growth inhibition of human HT-29 cells at 10 uM by sulforhodamine B assay; format: functional, cell-based
# MDA-MB-435 = assay: Growth inhibition of human MDA-MB-435 cells at 10 uM by sulforhodamine B assay; format: functional, cell-based
# Hs-578T = assay: Growth inhibition of human Hs 578T cells at 10 uM by sulforhodamine B assay; format: functional, cell-based
# A549 [3] = assay: Cell cycle arrest in human A549 cells assessed as accumulation at sub-G1 phase at 5 uM after 48 hrs using propidium iodide staining by flow cytometer analysis (reference value: 0.96%); format: functional
# HL-60(TB) = assay: Growth inhibition of human HL-60(TB) cells at 10 uM by sulforhodamine B assay; format: functional, cell-based
# A549 [4] = assay: Cell cycle arrest in human A549 cells assessed as accumulation at S phase at 20 uM after 48 hrs using propidium iodide staining by flow cytometer analysis (reference value: 6.67%); format: functional
# A549 [5] = assay: Cell cycle arrest in human A549 cells assessed as accumulation at G0/G1 phase at 5 uM after 48 hrs using propidium iodide staining by flow cytometer analysis (reference value: 79.34%); format: functional
# T47D = assay: Growth inhibition of human T47D cells at 10 uM by sulforhodamine B assay; format: functional, cell-based
# IGROV-1 = assay: Growth inhibition of human IGROV1 cells at 10 uM by sulforhodamine B assay; format: functional, cell-based
# A498 = assay: Growth inhibition of human A498 cells at 10 uM by sulforhodamine B assay; format: functional, cell-based
# NCI-H322M = assay: Growth inhibition of human NCI-H322M cells at 10 uM by sulforhodamine B assay; format: functional, cell-based
# A549 [6] = assay: Inhibition of cell migration in human A549 cells assessed as cells migrating into scratch area after 24 hrs by wound healing assay; format: functional, cell-based
# MOLT-4 = assay: Growth inhibition of human MOLT4 cells at 10 uM by sulforhodamine B assay; format: functional, cell-based
# SR = assay: Growth inhibition of human SR cells at 10 uM by sulforhodamine B assay; format: functional, cell-based
# OVCAR-3 = assay: Growth inhibition of human OVCAR3 cells at 10 uM by sulforhodamine B assay; format: functional, cell-based
# NCI-H23 = assay: Growth inhibition of human NCI-H23 cells at 10 uM by sulforhodamine B assay; format: functional, cell-based
compound,measurement,setting,value
COc1ccc(-c2nc(-c3ccccn3)c(-c3ccccn3)n2CC(C)C)cc1OC1CCCC1,growth inhibition (GI),LOX IMVI,Active
same,growth inhibition (GI),HCT-116,Active
same,growth inhibition (GI),COLO 205,Active
same,growth inhibition (GI),SW-620,Active
same,growth inhibition (GI),ACHN,Active
same,growth inhibition (GI),Malme-3M,Active
same,growth inhibition (GI),TK-10,Active
same,Activity,A549 [1],6.73%
same,growth inhibition (GI),CCRF-CEM,Active
same,Activity,A549 [2],19.34%
same,growth inhibition (GI),RPMI-8226,Active
same,growth inhibition (GI),SF-268,Active
same,growth inhibition (GI),HT-29,Active
same,growth inhibition (GI),MDA-MB-435,Active
same,growth inhibition (GI),Hs-578T,Active
same,Activity,A549 [3],2.49%
same,growth inhibition (GI),HL-60(TB),Active
same,Activity,A549 [4],6.63%
same,Activity,A549 [5],89.38%
same,growth inhibition (GI),T47D,Active
same,growth inhibition (GI),IGROV-1,Active
same,growth inhibition (GI),A498,Active
same,growth inhibition (GI),NCI-H322M,Active
same,inhibition,A549 [6],Dose-dependent effect
same,growth inhibition (GI),MOLT-4,Active
same,growth inhibition (GI),SR,Active
same,growth inhibition (GI),OVCAR-3,Active
same,growth inhibition (GI),NCI-H23,Active
